Assay results as given in US8895051B2, “Flavoring systems for pharmaceutical compositions and methods of making such compositions” (AbbVie Inc., priority 2000, dated 2014).

How the values were obtained:
[1] = solubility in pharmaceutically acceptable solvents and in a co-solvent system; assay type: physicochemical
solubility in water = assay type: physicochemical; conditions: room temperature and pressure (approximately 25° C. and 1 atmosphere)

- solubility in pharmaceutically acceptable solvents, such as propylene glycol and ethanol ([1]; individual solvents, room temperature (about 25° C.)): adequately soluble
- solubility in a co-solvent system ([1]; more than one solvent in the solvent system, versus individual solvents): significantly improved
- solubility in water (solubility in water): practically insoluble
Structure (SMILES): Cc1cccc(C)c1OCC(=O)N[C@@H](Cc1ccccc1)[C@@H](O)C[C@H](Cc1ccccc1)NC(=O)[C@H](C(C)C)N1CCCNC1=O (relative stereo) [lopinavir, [1S-[1R*,(R*),3R*,4R*]]-N-[4-[[(2,6-dimethylphenoxy)acetyl]amino]-3-hydroxy-5-phenyl-1-(phenylmethyl)pentyl]tetrahydro-alpha-(1-methylethyl)-2-oxo-(2H)-pyrimidine acetamide]
